Three molecules from patent US7232673B2, “Antimicrobial protein from Lyophyllum shimeji” (Japan Tobacco Inc., priority 1999, dated 2007) can be followed below.

Common to all, as to assay: Pyranose oxidase activity (properties of pyranose oxidase, method of Nishimura et al. 1996)
Data set [1] deals with T1, Lyophyllum shimeji antimicrobial protein (pyranose oxidase), native, purified MonoQ fractions Nos. 42-44 containing the 65 kDa + 70 kDa proteins, SEQ ID NO:2 (Lyophyllum shimeji, UniProt Q75ZP8).
T1 construct: MonoQ fractions 42-44 holding the 70 kDa precursor (1-618) and 65 kDa mature form (76-618), both from a single gene; not the His-tagged E. coli product
T1 sequence (Q75ZP8 76-618): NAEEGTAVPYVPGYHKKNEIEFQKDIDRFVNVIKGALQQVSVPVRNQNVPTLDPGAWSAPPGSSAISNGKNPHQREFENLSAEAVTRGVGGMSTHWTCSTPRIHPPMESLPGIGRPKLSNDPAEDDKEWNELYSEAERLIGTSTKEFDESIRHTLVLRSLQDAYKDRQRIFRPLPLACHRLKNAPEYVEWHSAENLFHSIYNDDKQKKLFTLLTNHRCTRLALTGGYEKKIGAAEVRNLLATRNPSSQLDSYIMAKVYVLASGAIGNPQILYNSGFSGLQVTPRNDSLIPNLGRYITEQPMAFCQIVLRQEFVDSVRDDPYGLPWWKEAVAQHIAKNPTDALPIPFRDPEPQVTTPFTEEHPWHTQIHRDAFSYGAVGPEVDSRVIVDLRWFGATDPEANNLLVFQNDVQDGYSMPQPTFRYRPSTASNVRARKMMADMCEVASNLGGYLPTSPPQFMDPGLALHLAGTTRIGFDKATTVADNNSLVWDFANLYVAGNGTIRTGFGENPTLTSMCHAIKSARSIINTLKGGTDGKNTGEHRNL
The format is biochemical. To be noted: result in words. How it is done: (§1) The amino acid sequences thus determined were searched for in a data base. […] Thus, the pyranose oxidase activity of each MonoQ fraction was measured in accordance with the method of Nishimura et al. (1996). […] Accordingly, it is estimated that the antimicrobial activity would be derived from hydrogen peroxide formed during the oxidation of glucose in the medium by this enzyme. Next, the fractions containing both of the 65 kDa and 70 kDa proteins (FIG. 2 Nos. 42–44) were exclusively concentrated and properties of pyranose oxidase were analyzed. […] The amount of the enzyme proteins (65 kDa+70 kDa) was determined by SDS-PAGE silver staining.

Substrate in data set [2]: OC[C@H]1OC[C@H](O)[C@@H](O)[C@@H]1O
The format is biochemical, Lyophyllum shimeji. The settings on record: other: native L. shimeji enzyme protein (65 kDa+70 kDa), table footnote (activity unit): pH 7.0, 37° C. How it is done: as §1

Substrate in data set [3]: OC[C@H]1OC(O)[C@H](O)[C@@H](O)[C@@H]1O
It is filed as biochemical, Lyophyllum shimeji. To be noted: other: native L. shimeji enzyme protein (65 kDa+70 kDa), table footnote (activity unit): pH 7.0, 37° C. As to the method:
as §1

Turning to `OC[C@H]1OC[C@H](O)[C@@H](O)[C@@H]1O` [1,5-Anhydroglucitol], in data set [1], the “Km values to 1,5-anhydroglucitol” value is “low”.

As for `OC[C@H]1OC(O)[C@H](O)[C@@H](O)[C@@H]1O` (stereo partly shown) [Glucose], the “Km values to glucose” value in data set [1] is on record as “low”.

B1: Lyophyllum shimeji antimicrobial protein (pyranose oxidase), native, purified MonoQ fractions Nos. 42-44 containing the 65 kDa + 70 kDa proteins, SEQ ID NO:2 … (protein)
chain: T1 sequence (Q75ZP8 76-618)
notes: MonoQ fractions 42-44 holding the 70 kDa precursor (1-618) and 65 kDa mature form (76-618), both from a single gene; not the His-tagged E. coli product
For the molecule B1, the figures for the Km in data set [2] and in data set [3] were 6.5 mM and 0.50 mM, respectively.

A word on the Km: it is the concentration of substrate that gives half-maximal velocity.
